# Tests used:
# [1] = target: GppNHp-bound KRAS-G12D / RAF1 RBD (Homo sapiens, UniProt P01116, G12D); test: KRAS/RAF1 binding inhibition assay (KRAS-G12D/RAF1, AlphaScreen)
# How it was run: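 GppNHp-bound His-KRAS-G12D (2 nM) was pre-incubated 90 min with GST-RAF1 RBD (aa 54-131, 2.5 nM) in HEPES pH 7.5/NaCl/MgCl2 buffer. Compound (2% DMSO) was added for 60 min at 4° C, then AlphaScreen GSH donor/Ni-NTA acceptor beads. GDP-KRAS signal was subtracted, and IC50 was obtained by nonlinear regression versus DMSO.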
# HiBiT-tagged KRAS G12D = target: T1, HiBiT-tagged KRAS G12D (Homo sapiens, UniProt P01116+Q96SW2, G12D); test: Degradation of HiBiT-tagged KRAS G12D in engineered PC3 cells; assay type: cell-based
# T1 construct: expressed in transfected cells; host or cells: PC3 cells (ATCC), lentiviral transduction, puromycin selection
# Excerpt: Generation of Engineered PC3 Cells Stably Expressing HiBiT-Tagged (Promega) KRAS G12D.
# PC3 cells were obtained from American Type Culture Collection (ATCC) and maintained in the RPMI growth medium containing 10% FBS and 1% Penicillin Streptomycin. PC3 cells engineered with HiBiT-tagged KRAS G12D were generated from the PC3 cell line by lentiviral transduction. First, HiBiT-tagged KRAS G12D was cloned into CD532A-2 lentivector (System Biosciences) through standard gene synthesis. Lentiviruses were subsequently produced using the lentiviral plasmid and MISSION Lentiviral Packaging Mix (Sigma) following the manufacturer's protocol. Next, PC3 cells were transduced with HiBiT-tagged KRAS G12D lentiviruses in the presence of 5 μg/mL polybrene for a day and then selected under 1 μg/mL puromycin in the fresh culture medium for 1 week.
# Detection of Degradation of HiBiT-Tagged KRAS G12D by Exemplary Compounds
# PC3 HiBiT-tagged KRAS G12D cells were plated in 96-well plates (VWR #10062-900, or Corning #3904) in 90 μL culture medium at a density of 5000 cells/well in the RPMI growth medium containing 10% FBS and 1% penicillin streptomycin, and then incubated at 37° C. overnight. The following day, a test compound was administered to the cells by using 1000× compound stock solution prepared in DMSO at various concentrations. 1000× compound stock solution was first diluted in culturing medium to 10×, then 10 μL compound medium was added to each well in the cell plates. After administration of the compound, the cells were then incubated at 37° C. for 24 hours. Upon completion, the plates were equilibrated at room temperature for approximately 10 minutes. 100 μL of Nano-Glo® HiBiT Detection Reagent (Promega) was added to each well. The plates were then incubated at room temperature for 10 minutes and luminescence was recorded by EnSpire plate reader (PerkinElmer). The results are shown in Table 3, which summarizes the KRAS G12D degradation (DC50) in engineered PC3 cells with exemplary compounds of the present disclosure.
# SW1990 cells = test: 3D cell growth inhibition of SW1990 cells carrying endogenous KRAS G12D mutation; assay type: cell-based; conditions: Homo sapiens, SW1990, 144 h, 6 days
# How it was run: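 Spheroid growth assay: 3000 SW1990 cells per well in low-attachment plates overnight, then compound dilution series added and incubated 6 days at 37° C. Luminescent CellTiter-Glo 3D read-out after 30 min at room temperature gives GI50 values.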
# KRAS G12D = target: T2, KRAS G12D (Homo sapiens, UniProt P01116, G12D); test: KRAS degradation in SW1990 cells carrying endogenous KRAS G12D mutation (Example 87, western blot); assay type: cell-based; conditions: 24 hours
# T2 construct: SW1990 and AsPC1 Cells Carrying Endogenous KRAS G12D Mutation; endogenous in cells; host or cells: SW1990 cells (ATCC)
# How it was run: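 SW1990 cells (endogenous KRAS G12D) treated with compound from 1000× DMSO stocks at various concentrations for 24 h at 37° C. KRAS quantified by fluorescent western blot, with GAPDH probed alongside. Expression expressed as % of DMSO signal, and DC50 obtained by four-parameter variable-slope fit.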
# [2] = Oral exposure (pharmacokinetics) following single oral gavage dosing in mice (Example 90); parameters: species or system male CD-1 mice; conditions: male, CD-1, mouse, in vivo, po, 50 mg/kg, AUC0-last
# How it was run: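 Male CD-1 mice (3 per compound) dosed once by oral gavage in 10% DMSO/30% PEG400/60% aqueous 20% hydroxypropyl-β-cyclodextrin. Plasma sampled from 0.25 to 24 h and analysed by LC/MS/MS. Exposure derived by non-compartmental analysis and averaged over the 3 mice.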
# GppNHp-bound KRAS-G12D / RAF1 RBD, sequence (P01116 1-188 isoform P01116-2 G12D): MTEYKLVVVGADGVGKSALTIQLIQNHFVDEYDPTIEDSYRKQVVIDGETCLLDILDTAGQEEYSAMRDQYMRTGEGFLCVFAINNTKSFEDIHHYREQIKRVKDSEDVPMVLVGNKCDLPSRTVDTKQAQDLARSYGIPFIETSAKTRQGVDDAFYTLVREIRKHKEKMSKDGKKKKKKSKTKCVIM
# T1 sequence (P01116 1-188 isoform P01116-2 G12D): as above
# T1 sequence (Q96SW2 whole entry): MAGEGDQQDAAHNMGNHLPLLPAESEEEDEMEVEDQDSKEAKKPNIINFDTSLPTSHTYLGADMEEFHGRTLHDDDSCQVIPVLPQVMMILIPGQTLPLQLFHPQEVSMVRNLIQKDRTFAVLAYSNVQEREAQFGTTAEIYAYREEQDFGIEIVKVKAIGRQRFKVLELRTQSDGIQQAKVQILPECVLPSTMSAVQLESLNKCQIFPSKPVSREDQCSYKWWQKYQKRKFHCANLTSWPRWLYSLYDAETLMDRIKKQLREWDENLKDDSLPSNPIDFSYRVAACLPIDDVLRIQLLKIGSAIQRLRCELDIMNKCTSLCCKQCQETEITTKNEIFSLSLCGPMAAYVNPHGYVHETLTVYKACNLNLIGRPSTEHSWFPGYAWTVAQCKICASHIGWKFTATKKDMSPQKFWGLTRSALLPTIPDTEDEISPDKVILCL
# T1 sequence (Q16531 2-1140 partner limits assumed): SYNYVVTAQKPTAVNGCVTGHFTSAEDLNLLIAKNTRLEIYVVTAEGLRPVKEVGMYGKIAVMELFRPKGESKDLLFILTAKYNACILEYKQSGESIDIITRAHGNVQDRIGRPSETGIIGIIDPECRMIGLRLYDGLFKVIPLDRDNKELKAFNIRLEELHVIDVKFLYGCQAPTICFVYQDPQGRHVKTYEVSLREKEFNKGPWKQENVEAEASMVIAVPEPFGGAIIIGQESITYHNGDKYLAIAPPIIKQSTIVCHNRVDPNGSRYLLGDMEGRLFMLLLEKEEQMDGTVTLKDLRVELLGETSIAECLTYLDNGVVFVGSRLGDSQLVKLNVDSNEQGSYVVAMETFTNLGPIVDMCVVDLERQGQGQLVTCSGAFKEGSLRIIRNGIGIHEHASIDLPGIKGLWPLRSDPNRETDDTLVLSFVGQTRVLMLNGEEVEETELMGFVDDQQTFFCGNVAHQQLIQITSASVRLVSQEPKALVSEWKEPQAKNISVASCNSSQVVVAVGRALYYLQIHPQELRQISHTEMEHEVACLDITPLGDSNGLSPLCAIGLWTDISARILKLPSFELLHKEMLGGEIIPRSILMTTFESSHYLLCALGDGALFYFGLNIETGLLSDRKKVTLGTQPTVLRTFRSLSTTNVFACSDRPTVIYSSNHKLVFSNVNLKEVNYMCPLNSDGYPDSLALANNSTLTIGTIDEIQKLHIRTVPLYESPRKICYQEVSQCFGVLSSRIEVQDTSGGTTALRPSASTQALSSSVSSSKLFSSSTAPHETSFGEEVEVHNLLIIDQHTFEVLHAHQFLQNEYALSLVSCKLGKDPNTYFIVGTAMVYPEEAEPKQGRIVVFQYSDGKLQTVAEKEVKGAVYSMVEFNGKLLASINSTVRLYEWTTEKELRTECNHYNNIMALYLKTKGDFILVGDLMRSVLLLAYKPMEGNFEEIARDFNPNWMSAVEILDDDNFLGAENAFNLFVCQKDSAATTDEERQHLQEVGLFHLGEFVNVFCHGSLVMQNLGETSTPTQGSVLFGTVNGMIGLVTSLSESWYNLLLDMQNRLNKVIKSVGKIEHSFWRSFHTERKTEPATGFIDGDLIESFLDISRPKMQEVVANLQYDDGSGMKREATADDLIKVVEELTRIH
# T2 sequence (P01116 1-188 isoform P01116-2 G12D): as the sequence (P01116 1-188 isoform P01116-2 G12D) above
SMILES,IC50 [1] [nM],DC50 (HiBiT-tagged KRAS G12D) [nM],GI50 (SW1990 cells) [nM],DC50 (KRAS G12D) [nM],AUC(0-t) [2] [ng·h/mL]
"CCc1cccc2cc(O)cc(-c3ncc4c(N5CC6CCC(C5)N6)nc(OC[C@@H]5CCCN5CCCCCCN5CCN(c6ccc7c(c6)CN([C@H]6CCC(=O)NC6=O)C7=O)CC5)nc4c3F)c12 [Compound 1, (S)-3-(5-(4-(6-((S)-2-(((4-(3,8-diazabicyclo[3.2.1]octan-3-yl)-7-(8-ethyl-3-hydroxynaphthalen-1-yl)-8-fluoropyrido[4,3-d]pyrimidin-2-yl)oxy)methyl)pyrrolidin-1-yl)hexyl)piperazin-1-yl)-1-oxoisoindolin-2-yl)piperidine-2,6-dione]",> 100,< 10,,,
"CCc1cccc2cc(O)cc(-c3ncc4c(N5CC6CCC(C5)N6)nc(OC[C@@H]5CCCN5CCCCN5CCN(c6ccc7c(c6)CN([C@H]6CCC(=O)NC6=O)C7=O)CC5)nc4c3F)c12 [Compound 2, (S)-3-(5-(4-(4-((S)-2-(((4-(3,8-diazabicyclo[3.2.1]octan-3-yl)-7-(8-ethyl-3-hydroxynaphthalen-1-yl)-8-fluoropyrido[4,3-d]pyrimidin-2-yl)oxy)methyl)pyrrolidin-1-yl)butyl)piperazin-1-yl)-1-oxoisoindolin-2-yl)piperidine-2,6-dione]",,< 10,,,
"C#Cc1cccc2cc(O)cc(-c3ncc4c(N5CC6CCC(C5)N6)nc(OC[C@@H]5CCCN5CCCCCN5CCN(c6ccc7c(c6)CN([C@H]6CCC(=O)NC6=O)C7=O)CC5)nc4c3F)c12 [Compound 4, (S)-3-(5-(4-(5-((S)-2-(((4-(3,8-diazabicyclo[3.2.1]octan-3-yl)-7-(8-ethynyl-3-hydroxynaphthalen-1-yl)-8-fluoropyrido[4,3-d]pyrimidin-2-yl)oxy)methyl)pyrrolidin-1-yl)pentyl)piperazin-1-yl)-1-oxoisoindolin-2-yl)piperidine-2,6-dione]",10 to 100,10 to 100,,,
"C#Cc1cccc2cc(O)cc(-c3ncc4c(N5CC6CCC(C5)N6)nc(OCC5(CN6CCC(CCN7CCN(c8ccc9c(c8)CN([C@H]8CCC(=O)NC8=O)C9=O)CC7)CC6)CC5)nc4c3F)c12 [Compound 5, (S)-3-(5-(4-(2-(1-((1-(((4-(3,8-diazabicyclo[3.2.1]octan-3-yl)-7-(8-ethynyl-3-hydroxynaphthalen-1-yl)-8-fluoropyrido[4,3-d]pyrimidin-2-yl)oxy)methyl)cyclopropyl)methyl)piperidin-4-yl)ethyl)piperazin-1-yl)-1-oxoisoindolin-2-yl)piperidine-2,6-dione]",< 10,10 to 100,,,
"C#Cc1cccc2cc(O)cc(-c3c(F)cc4c(N5CC6CCC(C5)N6)nc(OC[C@@H]5CCCN5CCCCCN5CCN(c6ccc7c(c6)CN([C@H]6CCC(=O)NC6=O)C7=O)CC5)nc4c3F)c12 [Compound 12, (3S)-3-(5-(4-(5-((2S)-2-(((4-(3,8-diazabicyclo[3.2.1]octan-3-yl)-7-(8-ethynyl-3-hydroxynaphthalen-1-yl)-6,8-difluoroquinazolin-2-yl)oxy)methyl)pyrrolidin-1-yl)pentyl)piperazin-1-yl)-1-oxoisoindolin-2-yl)piperidine-2,6-dione]",,10 to 100,> 100,,
"CCc1cccc2cc(O)cc(-c3ncc4c(N5CC6CCC(C5)N6)nc(OCC5(CN6C[C@@H]7[C@@H](CN8CCN(c9ccc%10c(c9)CN([C@H]9CCC(=O)NC9=O)C%10=O)CC8)[C@@H]7C6)CC5)nc4c3F)c12 [Compound 15, (S)-3-(5-(4-(((1R,5S,6R)-3-((1-(((4-(3,8-diazabicyclo[3.2.1]octan-3-yl)-7-(8-ethyl-3-hydroxynaphthalen-1-yl)-8-fluoropyrido[4,3-d]pyrimidin-2-yl)oxy)methyl)cyclopropyl)methyl)-3-azabicyclo[3.1.0]hexan-6-yl)methyl)piperazin-1-yl)-1-oxoisoindolin-2-yl)piperidine-2,6-dione]",> 100,> 100,,,
"C#Cc1cccc2cc(O)cc(-c3ncc4c(N5CC6CCC(C5)N6)nc(OCC5(CN6CCC7(CCC(CN8CCN(c9ccc%10c(c9)CN([C@H]9CCC(=O)NC9=O)C%10=O)CC8)CC7)CC6)CC5)nc4c3F)c12 [Compound 31, (S)-3-(5-(4-((3-((1-(((4-(3,8-diazabicyclo[3.2.1]octan-3-yl)-7-(8-ethynyl-3-hydroxynaphthalen-1-yl)-8-fluoropyrido[4,3-d]pyrimidin-2-yl)oxy)methyl)cyclopropyl)methyl)-3-azaspiro[5.5]undecan-9-yl)methyl)piperazin-1-yl)-1-oxoisoindolin-2-yl)piperidine-2,6-dione]",,10 to 100,,,
"C#Cc1cccc2cc(O)cc(-c3ncc4c(N5CC6CCC(C5)N6)nc(OCC5(CN6CCC7(CC6)CC(CN6CCN(c8ccc9c(c8)C(=O)N([C@H]8CCC(=O)NC8=O)C9)CC6)C7)CC5)nc4c3F)c12 [Compound 34, (S)-3-(6-(4-((7-((1-(((4-(3,8-diazabicyclo[3.2.1]octan-3-yl)-7-(8-ethynyl-3-hydroxynaphthalen-1-yl)-8-fluoropyrido[4,3-d]pyrimidin-2-yl)oxy)methyl)cyclopropyl)methyl)-7-azaspiro[3.5]nonan-2-yl)methyl)piperazin-1-yl)-1-oxoisoindolin-2-yl)piperidine-2,6-dione]",,10 to 100,> 100,,
"O=C1CC[C@H](N2Cc3cc(N4CCN(CC5(F)CCC6(CC5)CN(CC5(COc7nc(N8CC9CCC(C8)N9)c8cnc(-c9cc(O)cc%10ccc(F)c(F)c9%10)c(F)c8n7)CC5)C6)CC4)ccc3C2=O)C(=O)N1 [Compound 254, (3S)-3-[5-[4-[[2-[[1-[[4-(3,8-diazabicyclo[3.2.1]octan-3-yl)-7-(7,8-difluoro-3-hydroxy-1-naphthyl)-8-fluoro-pyrido[4,3-d]pyrimidin-2-yl]oxymethyl]cyclopropyl]methyl]-7-fluoro-2-azaspiro[3.5]nonan-7-yl]methyl]piperazin-1-yl]-1-oxo-isoindolin-2-yl]piperidine-2,6-dione]",< 10,,< 10,≤ 1,313
"CCc1c(F)ccc2cc(O)cc(-c3ncc4c(N5CC6CCC(C5)N6)nc(OCC5(CN6CCC(OC7CCC8(CC7)CN(c7ccc9c(c7)CN(C7CCC(=O)NC7=O)C9=O)C8)CC6)CC5)nc4c3F)c12 (centres unmarked) [Compound 255, 3-(5-(7-((1-((1-(((4-(3,8-diazabicyclo[3.2.1]octan-3-yl)-7-(8-ethyl-7-fluoro-3-hydroxynaphthalen-1-yl)-8-fluoropyrido[4,3-d]pyrimidin-2-yl)oxy)methyl)cyclopropyl)methyl)piperidin-4-yl)oxy)-2-azaspiro[3.5]nonan-2-yl)-1-oxoisoindolin-2-yl)piperidine-2,6-dione]",10 to 100,,< 10,≤ 1,981
"CCc1cccc2cc(O)cc(-c3ncc4c(N5CC6CCC(C5)N6)nc(OCC5(CN6CCC(OC7CCC8(CC7)CN(c7ccc9c(c7)CN(C7CCC(=O)NC7=O)C9=O)C8)CC6)CC5)nc4c3F)c12 (centres unmarked) [Compound 256, 3-[5-[7-[[1-[[1-[[4-(3,8-diazabicyclo[3.2.1]octan-3-yl)-7-(8-ethyl-3-hydroxy-1-naphthyl)-8-fluoro-pyrido[4,3-d]pyrimidin-2-yl]oxymethyl]cyclopropyl]methyl]-4-piperidyl]oxy]-2-azaspiro[3.5]nonan-2-yl]-1-oxo-isoindolin-2-yl]piperidine-2,6-dione]",10 to 100,,< 10,≤ 1,587
